The text below walks through data of ChEMBL document CHEMBL1268993, “Tri- and tetrasubstituted imidazoles as p38α mitogen-activated protein kinase inhibitors” (Bioorg Med Chem Lett, 2010).

For the experiment, the target named is Mitogen-activated protein kinase 14 (Homo sapiens, UniProt Q16539). The experiment is described as follows: Inhibition of p38alpha by immunosorbent based assay.
Sequence of Mitogen-activated protein kinase 14 (Q16539 whole entry): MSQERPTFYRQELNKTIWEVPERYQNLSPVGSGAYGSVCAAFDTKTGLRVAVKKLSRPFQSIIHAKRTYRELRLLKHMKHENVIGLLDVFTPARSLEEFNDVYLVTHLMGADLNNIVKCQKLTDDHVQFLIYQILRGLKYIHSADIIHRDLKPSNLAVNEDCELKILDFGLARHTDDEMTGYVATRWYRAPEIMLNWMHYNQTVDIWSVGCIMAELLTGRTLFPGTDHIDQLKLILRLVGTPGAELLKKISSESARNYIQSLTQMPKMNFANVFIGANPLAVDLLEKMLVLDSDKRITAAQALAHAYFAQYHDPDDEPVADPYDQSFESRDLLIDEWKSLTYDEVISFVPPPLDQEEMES

`CSc1nc(-c2ccc(F)cc2)c(-c2ccnc(NC(=O)c3cc4ccccc4o3)c2)[nH]1` came in with an IC50 of 53 nM.
Take `COc1ccc(/C=C/C(=O)Nc2cc(-c3c(-c4ccc(F)cc4)nc(SC)n3C)ccn2)cc1`: the IC50 was found to be 18 nM.
On to `C=CC(=O)Nc1cc(-c2c(-c3ccc(F)cc3)nc(SC)n2CCOC)ccn1`, for which the IC50 is 170 nM.
For the compound `CCn1c(SC)nc(-c2ccc(F)cc2)c1-c1ccnc(NC(=O)Cc2ccc(F)cc2)c1`, it took 93 nM to reach half-maximal inhibition (IC50). Compared with the last compound, the IC50 is about 1.8-fold lower.
Consider `CSc1nc(-c2ccc(F)cc2)c(-c2ccnc(NC(C)=O)c2)n1CCCCO`, for which the midpoint of inhibition, the IC50, lay at 140 nM.
`CSc1nc(-c2ccc(F)cc2)c(-c2ccnc(NC(C)=O)c2)n1C1CC1` yielded an IC50 of 400 nM.
The compound `CSc1nc(-c2ccc(F)cc2)c(-c2ccnc(NC(C)=O)c2)n1CCC(=O)N1CCOCC1` showed an IC50 of 1570 nM. Compared with the last compound, the IC50 is about 3.9-fold higher.
In the case of `CSc1nc(-c2ccc(F)cc2)c(-c2ccnc(NC(=O)C3CCCC3)c2)n1C`, the IC50 came to 150 nM.
As for `CSc1nc(-c2ccc(F)cc2)c(-c2ccnc(NC(=O)C3CC3)c2)n1C`, inhibition was half-maximal at 170 nM (IC50). The IC50 values of the last two compounds are within 1.5-fold of each other.
For the compound `CSc1nc(-c2ccc(F)cc2)c(-c2ccnc(NC(C)=O)c2)n1C(CCO)CCO`, the IC50 was 6140 nM. This IC50 lies about 36-fold higher than the previous one.
`CSc1nc(-c2ccc(F)cc2)c(-c2ccnc(NC(C)=O)c2)n1CCCCCl` displayed an IC50 of 180 nM.
Turning to `CSc1nc(-c2ccc(F)cc2)c(-c2ccnc(NC(=O)/C=C/c3c(Cl)cccc3Cl)c2)[nH]1`, 3 nM corresponded to half-maximal inhibition (IC50).
Regarding `CSc1nc(-c2ccc(F)cc2)c(-c2ccnc(NC(C)=O)c2)n1CCCCl`, the 50% inhibitory concentration (IC50) was determined as 17 nM.
The figure for `CSc1nc(-c2ccc(F)cc2)c(-c2ccnc(NC(=O)COc3ccc(Cl)cc3)c2)[nH]1` is 100 nM; for `CSc1nc(-c2ccc(F)cc2)c(-c2ccnc(NC(C)=O)c2)n1CCC(=O)N1CCCC1` it is 1140 nM.
As to `CSc1nc(-c2ccc(F)cc2)c(-c2ccnc(NC(C)=O)c2)n1CCCCC(=O)O`, the IC50 came to 770 nM.
With `CSc1nc(-c2ccc(F)cc2)c(-c2ccnc(NC(=O)C(C)c3ccc(CC(C)C)cc3)c2)[nH]1` (centres undefined), the IC50 worked out at 90 nM.
Next, `CSc1nc(-c2ccc(F)cc2)c(-c2ccnc(NC(=O)COc3ccc(Cl)cc3Cl)c2)[nH]1`: 160 nM.
`CCC(=O)Nc1cc(-c2c(-c3ccc(F)cc3)nc(SC)n2CCOC)ccn1` came in with an IC50 of 180 nM.
Take `CSc1nc(-c2ccc(F)cc2)c(-c2ccnc(NC(=O)/C=C/c3c(Cl)cccc3Cl)c2)n1C`: the 50% inhibitory concentration (IC50) was found to be 170 nM.
Compound `CSc1nc(-c2ccc(F)cc2)c(-c2ccnc(NC(=O)CCc3ccc(C(C)(C)C)cc3)c2)[nH]1` had an IC50 of 130 nM.
Next, `CSc1nc(-c2ccc(F)cc2)c(-c2ccnc(NC(=O)/C(F)=C/c3ccccc3)c2)[nH]1`: 27 nM; `CSc1nc(-c2ccc(F)cc2)c(-c2ccnc(NC(C)=O)c2)n1CCCl`: 150 nM.
Compound `CSc1nc(-c2ccc(F)cc2)c(-c2ccnc(NC(C)=O)c2)n1CCCF` displayed a concentration for half-maximal inhibition (IC50) of 180 nM.
As for `CCn1c(SC)nc(-c2ccc(F)cc2)c1-c1ccnc(NC(=O)/C=C/c2c(Cl)cccc2Cl)c1`, half-maximal inhibition (IC50) required 100 nM.
The compound `CSc1nc(-c2ccc(F)cc2)c(-c2ccnc(NC(C)=O)c2)n1C(CO)CO` gave an IC50 of 6280 nM.
Compound `CSc1nc(-c2ccc(F)cc2)c(-c2ccnc(NC(C)=O)c2)n1CC(O)CO` (centres undefined) displayed an IC50 of 1490 nM. This IC50 lies about 4.2-fold lower than the previous one.
In the case of `COCCn1c(SC)nc(-c2ccc(F)cc2)c1-c1ccnc(NC(=O)c2cccs2)c1`, the IC50 was determined as 240 nM.
With `CCOC(=O)CCn1c(SC)nc(-c2ccc(F)cc2)c1-c1ccnc(NC(C)=O)c1`, the IC50 was 440 nM.
With `CCC(CC)n1c(SC)nc(-c2ccc(F)cc2)c1-c1ccnc(NC(C)=O)c1`, inhibition was half-maximal at 570 nM (IC50).
Turning to `COc1ccc(/C=C/C(=O)Nc2cc(-c3c(-c4ccc(F)cc4)nc(SC)n3C)ccn2)c(OC)c1`, the IC50 worked out at 280 nM.
On to `CSc1nc(-c2ccc(F)cc2)c(-c2ccnc(NC(=O)COc3cccc(Cl)c3Cl)c2)[nH]1`, for which the concentration for half-maximal inhibition (IC50) turned out to be 160 nM.
`CSc1nc(-c2ccc(F)cc2)c(-c2ccnc(NC(C)=O)c2)n1CCCI` yielded an IC50 of 19 nM.
The figure for `CSc1nc(-c2ccc(F)cc2)c(-c2ccnc(NC(C)=O)c2)n1CCO` is 110 nM.
The figure for `COCCn1c(SC)nc(-c2ccc(F)cc2)c1-c1ccnc(NC(=O)CC(F)(F)F)c1` is 490 nM.
Regarding `CSc1nc(-c2ccc(F)cc2)c(-c2ccnc(NC(=O)Cc3ccc(F)cc3)c2)n1C`, inhibition was half-maximal at 130 nM (IC50).
The figure for `CSc1nc(-c2ccc(F)cc2)c(-c2ccnc(NC(=O)Cc3ccc(Cl)cc3)c2)n1C` is 22 nM; for `CSc1nc(-c2ccc(F)cc2)c(-c2ccnc(NC(C)=O)c2)n1CCC(=O)N1CCCCC1` it is 2240 nM; for `COC(=O)CCn1c(SC)nc(-c2ccc(F)cc2)c1-c1ccnc(NC(C)=O)c1` it is 330 nM.
The figure for `CSc1nc(-c2ccc(F)cc2)c(-c2ccnc(NC(C)=O)c2)n1[C@H]1CC[C@H](O)CC1` is 320 nM; for `CSc1nc(-c2ccc(F)cc2)c(-c2ccnc(NC(C)=O)c2)n1CC(=O)N1CCOCC1` it is 280 nM.
In the case of `CSc1nc(-c2ccc(F)cc2)c(-c2ccnc(NC(=O)c3ccc(-c4ccccc4)cc3)c2)[nH]1`, the half-inhibitory concentration (IC50) turned out to be 100 nM.
`CSc1nc(-c2ccnc(NC(=O)Cc3ccc(F)cc3)c2)c(-c2ccc(F)cc2)[nH]1` registered an IC50 of 9 nM.
The figure for `CSc1nc(-c2ccc(F)cc2)c(-c2ccnc(NC(=O)C3=Cc4ccccc4OC3)c2)[nH]1` is 27 nM.
On to `CSc1nc(-c2ccc(F)cc2)c(-c2ccnc(NC(C)=O)c2)n1CCCBr`, for which inhibition was half-maximal at 27 nM (IC50).
The figure for `CCN(CC)C(=O)CCn1c(SC)nc(-c2ccc(F)cc2)c1-c1ccnc(NC(C)=O)c1` is 1200 nM.
`CSc1nc(-c2ccc(F)cc2)c(-c2ccnc(NC(C)=O)c2)n1C1CCOCC1` yielded an IC50 of 780 nM.
For `COCCn1c(SC)nc(-c2ccc(F)cc2)c1-c1ccnc(NC(C)=O)c1`, half-maximal inhibition (IC50) required 110 nM. Compared with the last compound, the IC50 is about 7.1-fold lower.
`CSc1nc(-c2ccc(F)cc2)c(-c2ccnc(NC(=O)c3ccco3)c2)[nH]1` returned an IC50 of 13 nM.
`CSc1nc(-c2ccc(F)cc2)c(-c2ccnc(NC(C)=O)c2)n1C1CCCCC1`: 790 nM corresponded to half-maximal inhibition (IC50).
Consider `CSc1nc(-c2ccc(F)cc2)c(-c2ccnc(NC(C)=O)c2)n1CCCO`, for which the half-maximal inhibitory concentration (IC50) was 150 nM. This IC50 lies about 5.3-fold lower than the previous one.
With `CSc1nc(-c2ccc(F)cc2)c(-c2ccnc(NC(=O)/C=C/c3ccc(C)cc3)c2)[nH]1`, the midpoint of inhibition, the IC50, lay at 32 nM.
`CCn1c(SC)nc(-c2ccc(F)cc2)c1-c1ccnc(NC(=O)/C=C/c2ccc(OC)cc2)c1` had an IC50 of 75 nM. Against the preceding compound, the IC50 is about 2.3-fold higher.
The compound `CSc1nc(-c2ccc(F)cc2)c(-c2ccnc(NC(C)=O)c2)n1CCC(=O)O` showed an IC50 of 2260 nM.
The figure for `CCn1c(SC)nc(-c2ccc(F)cc2)c1-c1ccnc(NC(=O)/C=C/c2ccc(OC)cc2OC)c1` is 38 nM; for `CSc1nc(-c2ccc(F)cc2)c(-c2ccnc(NC(=O)c3ccc(C)c(F)c3)c2)[nH]1` it is 14 nM.
`COc1ccc(/C=C/C(=O)Nc2cc(-c3[nH]c(SC)nc3-c3ccc(F)cc3)ccn2)cc1` showed a half-maximal inhibitory concentration (IC50) of 10 nM.
`CCN(CC)C(=O)Cn1c(SC)nc(-c2ccc(F)cc2)c1-c1ccnc(NC(C)=O)c1` displayed an IC50 of 60 nM.
The compound `CSc1nc(-c2ccc(F)cc2)c(-c2ccnc(NC(C)=O)c2)n1CCCC(=O)O` yielded a concentration for half-maximal inhibition (IC50) of 1620 nM.
